Earlier results in patent publication US6306425A, “Injectable naltrexone microsphere compositions and their use in reducing consumption of heroin and alcohol” (Southern Research Institute, priority 2000, dated 2001).

For `O=C1CC[C@@]2(O)[C@H]3Cc4ccc(O)c5c4[C@@]2(CCN3CC2CC2)[C@H]1O5` [naltrexone], the Safety (administered levels in excess of those of the subject compositions) is given as “found to be safe”, the Hepatotoxicity (high dosages) is given as “some reports of hepatotoxicity” and the “Population with adverse reactions” value (oral naltrexone) is given as “about 10%”. For the same compound, the “Control of amount of alcohol consumed and number of binges” value (alcoholics) was “serves to enhance the control of the alcoholic in the amount of alcohol consumed and the number of binges”.
